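A five-concentration, 48-hour dose response in 96-well plates underlies each endpoint, interpolated linearly between surrounding concentrations. TGI marks complete inhibition of growth.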
How the values were obtained:
Assay in all cases: inhibition of tumour cell growth, NCI panel, 48 h
UACC-62 melanoma = system: UACC-62 melanoma
COLO 205 colon = system: COLO 205 colon
OVCAR-3 ovarian = system: OVCAR-3 ovarian
HCC-2998 colon = system: HCC-2998 colon
HL-60(TB) leukemia = system: HL-60(TB) leukemia
MALME-3M melanoma = system: MALME-3M melanoma
OVCAR-8 ovarian = system: OVCAR-8 ovarian
TK-10 renal = system: TK-10 renal
OVCAR-4 ovarian = system: OVCAR-4 ovarian
KM12 colon = system: KM12 colon

Structure (SMILES)	TGI (UACC-62 melanoma)	TGI (COLO 205 colon)	TGI (OVCAR-3 ovarian)	TGI (HCC-2998 colon)	TGI (HL-60(TB) leukemia)	TGI (MALME-3M melanoma)	TGI (OVCAR-8 ovarian)	TGI (TK-10 renal)	TGI (OVCAR-4 ovarian)	TGI (KM12 colon)
C#CCNC(=O)NC(CCCNC(=O)OCc1ccccc1)C(=O)OCc1ccccc1 (configuration not stated)	> 100 µM	> 100 µM	> 100 µM	> 100 µM	59.3 µM	> 100 µM	> 100 µM	> 100 µM	> 100 µM	> 100 µM
COC1O[C@H]2CCN(C(=O)OCc3ccccc3)[C@H]2[C@H]1OCc1ccccc1 (some centres not stated)	64.4 µM	> 100 µM	> 100 µM	> 100 µM	68.6 µM	> 100 µM	> 100 µM	> 100 µM	> 100 µM	> 100 µM
CCOC(=O)C1=C(C)N(c2ccccc2)C2=C(C(=O)N(c3ccccc3)C2c2ccccc2)C1c1ccccc1 (configuration not stated)	> 100 µM	> 100 µM	> 100 µM	> 100 µM	> 100 µM	> 100 µM	> 100 µM	> 100 µM	> 100 µM	> 100 µM
COC(=O)c1cc(CC(C)C)c2c(c1)[nH]c1ccccc12	> 100 µM	> 100 µM	> 100 µM	> 100 µM	–	> 100 µM	> 100 µM	> 100 µM	> 100 µM	> 100 µM
Cc1cc(=O)cc2sc3c(C)cccc3nc1-2	–	32.6 µM	52 µM	> 100 µM	46.8 µM	> 100 µM	> 100 µM	77.4 µM	30 µM	48.2 µM
Cc1c(Cl)cccc1NC(=O)C(=O)C1C(=O)CC(C)(C)CC1=O	> 100 µM	> 100 µM	> 100 µM	> 100 µM	> 100 µM	> 100 µM	> 100 µM	> 100 µM	> 100 µM	> 100 µM
Clc1cc(N/N=C(/c2ccccc2)c2ncccn2)ncn1	> 100 µM	22.8 µM	76 µM	> 100 µM	–	–	34.6 µM	–	68 µM	> 100 µM
CCCN=C1CC(C)Nc2ccccc2N1 (configuration not stated)	> 100 µM	> 100 µM	> 100 µM	–	> 100 µM	> 100 µM	> 100 µM	> 100 µM	> 100 µM	> 100 µM
O=C(/C=C/c1ccccc1)/C=C/c1ccccc1O	38.8 µM	31.1 µM	0.842 µM	26.8 µM	35.8 µM	1.83 µM	30.6 µM	96.3 µM	–	31.7 µM
COc1ccc(/C(=C/n2ccnc2)C(=O)c2ccc(OC)c(OC)c2)cc1	> 100 µM	> 100 µM	> 100 µM	> 100 µM	> 100 µM	> 100 µM	> 100 µM	> 100 µM	> 100 µM	> 100 µM
COC(=O)C(C#N)=C1c2ccccc2Oc2ccccc21	> 100 µM	> 100 µM	73.1 µM	> 100 µM	56.4 µM	> 100 µM	> 100 µM	> 100 µM	> 100 µM	> 100 µM
CC(C)C(Sc1nc(-c2ccccc2)c(-c2ccccc2)[nH]1)C(=O)NNC(=S)Nc1ccccc1 (configuration not stated)	12.4 µM	35.9 µM	29 µM	17.6 µM	40.1 µM	33.3 µM	> 100 µM	> 100 µM	79.2 µM	28.9 µM
COc1ccc2nc(-c3ccc(OCc4ccccc4)cc3)ccc2c1	> 100 µM	> 100 µM	> 100 µM	> 100 µM	> 100 µM	> 100 µM	> 100 µM	> 100 µM	> 100 µM	> 100 µM
C=CCN(CC=C)Cn1c(=S)sc2ccccc21	> 100 µM	> 100 µM	> 100 µM	> 100 µM	41 µM	–	> 100 µM	> 100 µM	> 100 µM	> 100 µM
CCOC(=O)C(OCC1CC=CCC1)Sc1ccccc1 (configuration not stated)	> 100 µM	> 100 µM	> 100 µM	> 100 µM	> 100 µM	> 100 µM	> 100 µM	> 100 µM	–	> 100 µM
Cc1c(Cl)ccc2c(=O)c3cccc(CC(=O)O)c3oc12	–	> 100 µM	> 100 µM	> 100 µM	> 100 µM	> 100 µM	> 100 µM	> 100 µM	> 100 µM	> 100 µM
O=C1CCCN(c2ccccc2)N1	> 100 µM	–	> 100 µM	> 100 µM	> 100 µM	> 100 µM	> 100 µM	–	> 100 µM	> 100 µM
COc1ccc(C2C(Cl)C(=O)N2NC(=O)c2ccc(NC(C)=O)cc2)cc1 (configuration not stated)	> 100 µM	> 100 µM	> 100 µM	–	> 100 µM	> 100 µM	> 100 µM	> 100 µM	> 100 µM	–
Cc1ccccc1C(C#N)C(=O)C(=O)Nc1nc([N+](=O)[O-])cs1 (configuration not stated)	> 100 µM	–	> 100 µM	> 100 µM	> 100 µM	> 100 µM	> 100 µM	> 100 µM	> 100 µM	> 100 µM
Cc1ccccc1C1OC1C(=O)c1ccccc1N (configuration not stated)	> 100 µM	> 100 µM	–	> 100 µM	–	–	> 100 µM	> 100 µM	> 100 µM	> 100 µM
